Source: US20240082218A1, “PHARMACEUTICAL COMBINATIONS COMPRISING A KRAS G12C INHIBITOR AND USES OF A KRAS G12C INHIBITOR FOR THE TREATMENT OF CANCERS” (priority 2020, published 2024)
Read-outs that look alike come from different tables or passages of the source.

Key:
KRASG12C [1] = target: T1, KRASG12C (Homo sapiens, UniProt P01116, G12C); experiment: In vivo KRASG12C target occupancy in NCI-H2122 xenografts; design: endogenous in cells; conditions: 100 mg/kg QD oral
Description: (§1) KRASG12C inhibition can be assessed by measuring free KRASG12C levels (target occupancy) and other biomarkers in the MAPK signaling pathway, such as decreased levels of phosphorylated ERK1/2 (pERK) and downregulation of DUSP6 mRNA transcript. […] In the less sensitive NCI-H2122 xenografts, orally administered JDQ443 (100 mg/kg QD) achieved approximately 80% KRASG12C inhibition and 90% decrease in DUSP6 mRNA transcript, causing stasis which is the maximum response in this model upon MAPK pathway inhibition.

KRASG12C [2] = target: T1, KRASG12C; experiment: In vivo KRASG12C target occupancy in MIA PaCa-2 xenografts; design: endogenous in cells; host or cells: MIA PaCa-2 tumour xenografts in mice
Description: as §1

NRAS WT = NRAS WT (Homo sapiens, UniProt P01111); experiment: cRAF recruitment 6 h cellular assay; assay type: cell-based
Sequence of NRAS WT (P01111 whole entry): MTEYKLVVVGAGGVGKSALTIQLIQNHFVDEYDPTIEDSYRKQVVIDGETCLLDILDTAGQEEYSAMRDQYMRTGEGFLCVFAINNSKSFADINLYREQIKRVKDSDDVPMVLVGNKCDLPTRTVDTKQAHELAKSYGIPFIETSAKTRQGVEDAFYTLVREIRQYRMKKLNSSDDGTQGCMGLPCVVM

[3] = tested on: Ba/F3 cells expressing FLAG-KRAS G12C/Y96C; experiment: Ba/F3 3-day proliferation, Cell titer glo (Example 12); assay type: cell-based, murine; conditions: Mus musculus
Description: (§2) The parental Ba/F3 cells were cultured in the presence of 5 ng/ml of recombinant murine IL-3 (Life Technologies, #PMC0035).
(§3) The mutant plasmids were transfected into the Ba/F3 WT cells by electroporation with the NEON transfection kit (Invitrogen, #MPK10025).
(§4) Ba/F3 cells are normally dependent on IL-3 to survive and proliferate, however, by expressing oncogenes they are able to switch their dependency from IL-3 to the expressed oncogene. […] Cell number and viability was measured every three days and after seven days the IL-3 withdrawal was completed.
(§5) Treatment was performed on the same day with a Tecan D300e drug dispenser. Viability was detected on the same day of treatment for the start plate (Day 0) and three days post-treatment (Day 3) using the CellTiter-Glo Luminescent Cell Viability Assay (Promega, #G7573) on a Tecan infinitiy M200 Pro reader (Intergration Time 1000 ms).
(§6) To determine the growth, the three days post-treatment (Day 3) readout was normalized to start plate (Day 0). The percentage viability was then calculated by normalizing treated wells to DMSO treated control samples. XLfit was used to make the fitted curve with a Sigmoidal Dose-Response Model (four-parameter curve) (FIG. 7).

[4] = tested on: Ba/F3 cells expressing FLAG-KRAS G12C/R68S; experiment: as above; assay type: cell-based, murine; conditions: Mus musculus
Description: as §2, §3, §4, §5, §6

[5] = tested on: Ba/F3 cells expressing FLAG-KRAS G12C/H95R; experiment: as above; assay type: cell-based, murine; conditions: Mus musculus
Description: as §2, §3, §4, §5, §6

[6] = tested on: Ba/F3 cells expressing FLAG-KRAS G12C/Y96D; experiment: as above; assay type: cell-based, murine; conditions: Mus musculus
Description: as §2, §3, §4, §5, §6

KYSE410 xenograft = experiment: Anti-tumor activity in KYSE410 (esophageal) xenografts; assay type: in vivo, mice; conditions: 10, 30 and 100 mg/kg oral daily
[7] = tested on: MEK Q56P mutated cell lines; experiment: pERK 6 h cellular assay; assay type: cell-based; conditions: Hec50, 6 h, read-out: pERK 6 h EC50 MEK^Q56P
KRASG12C [8] = target: T1, KRASG12C; experiment: cRAF recruitment 6 h cellular assay; assay type: cell-based
4-week toxicity study = assay type: in vivo; conditions: dog
H358 cancer cells = experiment: Antiproliferation in H358 cancer cells; assay type: cell-based; conditions: Homo sapiens, NCI-H358
KRAS WT = KRAS WT (Homo sapiens, UniProt P01116); experiment: cRAF recruitment 6 h cellular assay; assay type: cell-based
DUSP6 mRNA transcript = experiment: In vivo DUSP6 mRNA in MIA PaCa-2 xenografts; conditions: 30 mg/kg QD oral
[9] = tested on: KRAS G12C-mutated colorectal cancer PDX models; experiment: KRAS G12C-mutated patient-derived xenograft (PDX) models of human colorectal cancer; assay type: in vivo, mice; conditions: oral; Compound A 100 mg/kg daily alone or with TNO155 10 mg/kg twice daily; one animal per PDX model
Description: Female nude mice were implanted subcutaneously with tumor fragments from each PDX model. Individual mice were assigned to treatment groups for dosing once their tumor volume reached 200-250 mm^3. One animal per PDX model was assigned to each treatment arm. […] The end of study per model was defined as minimum of 28 days treatment, or duration for untreated tumor to reach 1500 mm^3, or duration for two doublings of untreated tumor, whichever was slower. Tumor volumes were recorded and are represented as % tumor volume change f SEM for each group.

[10] = tested on: MEK Q56P mutated cell lines; experiment: Proliferation cellular assay; assay type: cell-based
HCC44 xenograft = experiment: Anti-tumor activity in HCC44 xenografts; assay type: in vivo, mice; conditions: 10, 30 and 100 mg/kg oral daily
[11] = tested on: Lu99 KRAS G12C lung carcinoma xenograft; experiment: Anti-tumor efficacy in Lu99 KRAS G12C lung carcinoma xenografts; assay type: in vivo, mice
Description: It carries the allele NM_033360.4(KRAS):c.34G>T and consequently a heterozygous KRAS Gly12Cys mutation. Lu99 cells were grown in sterile conditions in a 37° C. incubator with 5% CO2 for two weeks. The cells were kept in RPMI media supplemented with 10% FCS, 2 mM L-Glutamin, 1 mM sodium pyruvate and 10 mM HEPES, and split 1:6 every 3 days. […] On the day of injection, cells were harvested after 8 passages in total, including passages from the vendor. Cells were resuspended in 50% HBSS and 50% Matrigel at a final concentration of 10·10^6 cells/ml.
Experiments were performed with female nude mice (Charles River Laboratories, Crl:NU(NCr)-Foxn1nu Homozygous). […] Animals were allowed to accommodate at least for 7 days.
Mice were injected subcutaneously with Lu99 human NSCLC cells to induce xenograft tumors and randomized into treatment groups when the mean tumor volume reached ˜250 mm^3.
The control group received a solution of 0.1% Tween 80 (Fisher Scientific AG #BP338-500) and 0.5% Methylcellulose in water.
The treatment period was between 9 to 28 days, depending on the groups.
Tumor growth was monitored regularly post cell inoculation and animals were randomized into treatment groups (n=6) when TV reached appropriate volume. During the treatment period, xenograft tumor sizes were measured about 2-3 times per week manually with calipers, and the TV was estimated in mm^3 using the formula: Length×Width^2/2.
Mice were injected subcutaneously with Lu99 human NSCLC cells to induce xenograft tumors and randomized into treatment groups when the mean tumor volume reached ˜200 mm^3. […] The treatment period was between 14 to 35 days, depending on the groups. Animals treated with vehicle were terminated at day 14. […] Tumor volumes were recorded and are represented as mean±SEM (standard error of the mean) for each group. Anti-tumor response of treatment groups vs. vehicle group was calculated at day 14 as % T/C or % regression.

[12] = tested on: KRAS G12C-mutated cell lines; experiment: Proliferation cellular assay; assay type: cell-based
KRASG12C [13] = target: T1, KRASG12C; experiment: Cellular target occupancy 6 h; assay type: cell-based
[14] = BaF3, 72 h, 3 days, 4 independent experiments, read-out: GI50 ± St DV

In the case of `C=CC(=O)N1CC2(CC(n3nc(-c4ccc5c(cnn5C)c4)c(-c4c(Cl)c(C)cc5[nH]ncc45)c3C)C2)C1` (single isomer, unassigned) [Compound A, 1-{6-[(4M)-4-(5-Chloro-6-methyl-1H-indazol-4-yl)-5-methyl-3-(1-methyl-1H-indazol-5-yl)-1H-pyrazol-1-yl]-2-azaspiro[3.3]heptan-2-yl}prop-2-en-1-one], the inhibition at 100 mg/kg (KRASG12C [1]) is reported as about 80%, the inhibition at 30 mg/kg (KRASG12C [2]; MIA PaCa-2 xenografts, 30 mg/kg QD oral) is reported as about 90% and the “KRASG12C TO t1/2” value (KRASG12C [2]; in vivo, MiaPaCa2 model) is reported as about 66 h. For the same compound, the EC50 (NRAS WT) was over 6000 nM, the GI50 [3, 14] was over 1000 nM and the GI50 ([3]; BaF3, read-out: GI50) was over 1000 nM. It also gave a GI50 [4, 14] of over 1000 nM, a GI50 ([4]; BaF3, read-out: GI50) of over 1000 nM and a GI50 [5, 14] of 24 ± 6 nM. For the same compound, the GI50 ([5]; BaF3, read-out: GI50) was 24 ± 6 nM, the GI50 [6, 14] was over 1000 nM and the GI50 ([6]; BaF3, read-out: GI50) was over 1000 nM. For the same compound, the “pattern of maximal response” value (KYSE410 xenograft) was “moderate tumor growth inhibition”, the EC50 [7] was over 10000 nM and the EC50 (KRASG12C [8]) was 20 nM. For the same compound, the “tolerability in 4-week toxicity study” value (4-week toxicity study) was “well tolerated”, the GI50 (H358 cancer cells) was 30 nM and the EC50 (KRAS WT) was over 10000 nM. The “decrease in DUSP6 mRNA transcript” value (DUSP6 mRNA transcript) was about 75%, the “tumor response in CRC PDX models” value [9] was “regression of one PDX model and to a slight to moderate tumor growth delay in some PDX models” and the GI50 [10] was 4000 nM. The “pattern of maximal response” value (HCC44 xenograft) was “stasis-like”, the “pattern of maximal response” value ([11]; LU99, 10, 30 and 100 mg/kg oral daily) was “regression” and the “anti-tumor response (Example 7)” value ([11]; Lu99, oral, Compound A 100 mg/kg once daily, TNO155 10 mg/kg twice daily continuous, alone or in combination) was “tumor regression for approximately two weeks”. The “anti-tumor response (Example 6)” value ([11]; Lu99, oral, Compound A 100 mg/kg once daily, TNO155 10 mg/kg twice daily, alone or in combination, up to 28 days) was “tumor regression for three weeks”, the GI50 [12] was 30 nM and the EC50 (KRASG12C [13]) was 30 nM.
